Test results reported in US9326973B2, “Hepatitis C virus inhibitors” (priority 2012, dated 2016).

Test system: HCV replicon, genotype-1a variant with glutamine 30 changed to glutamate in the NS5A protein
Assay: microbe, parasite or virus in culture
Format: cell-based, HCV genotype 1a
Conditions: HCV replicon genotype 1a Q30E (Q→E) variant; test compound titrated with an NS5A-targeting compound (BMS-790052 fixed at 200 nM); ranking of synergist activity
How it was run: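 Synergy was assessed by combining several fixed amounts of an NS5A-targeting compound with a titration of the second compound of interest.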

Row | SMILES | Fold-Synergistic 1a (Q30E)
1 | CC(C)[C@H](NC(=O)C(=O)N1CCC(C(F)(F)F)CC1)c1nc(-c2ccc(-c3ccc(-c4c[nH]c([C@@H](NC(=O)C(=O)N5CCC(C(F)(F)F)CC5)C(C)C)n4)cc3)cc2)c[nH]1 [Compound W-53] | >100 fold
2 | CC(C)[C@H](NC(=O)C(=O)N1C[C@@H](C)O[C@@H](C)C1)c1nc(-c2ccc(-c3ccc(-c4c[nH]c([C@@H](NC(=O)C(=O)N5C[C@@H](C)O[C@@H](C)C5)C(C)C)n4)cc3)cc2)c[nH]1 [Compound W-54] | >100 fold
3 | CC(C)[C@H](NC(=O)C(=O)N(C(C)C)C1CC1)c1nc(-c2ccc(-c3ccc(-c4c[nH]c([C@@H](NC(=O)C(=O)N(C(C)C)C5CC5)C(C)C)n4)cc3)cc2)c[nH]1 [Compound W-55] | >100 fold
4 | CCN(CC(F)(F)F)C(=O)C(=O)N[C@H](c1nc(-c2ccc(-c3ccc(-c4c[nH]c([C@@H](NC(=O)C(=O)N(CC)CC(F)(F)F)C(C)C)n4)cc3)cc2)c[nH]1)C(C)C [Compound W-56] | >100 fold
5 | CC1([C@H](NC(=O)C(=O)N2CCCCCC2)c2nc(-c3ccc(-c4ccc(-c5c[nH]c([C@@H](NC(=O)C(=O)N6CCCCCC6)C6(C)CC6)n5)cc4)cc3)c[nH]2)CC1 [Compound W-57] | >100 fold
6 | CC(C)N(C(=O)C(=O)N[C@H](c1nc(-c2ccc(-c3ccc(-c4c[nH]c([C@@H](NC(=O)C(=O)N(C(C)C)C5CC5)C5(C)CC5)n4)cc3)cc2)c[nH]1)C1(C)CC1)C1CC1 [Compound W-58] | >100 fold
7 | CC1([C@H](NC(=O)C(=O)N2CCC(C(F)(F)F)CC2)c2nc(-c3ccc(-c4ccc(-c5c[nH]c([C@@H](NC(=O)C(=O)N6CCC(C(F)(F)F)CC6)C6(C)CC6)n5)cc4)cc3)c[nH]2)CC1 [Compound W-59] | >100 fold
8 | CC(C)(C)[C@H](NC(=O)C(=O)N1CCC(C(F)(F)F)CC1)c1nc(-c2ccc(-c3ccc(-c4c[nH]c([C@@H](NC(=O)C(=O)N5CCC(C(F)(F)F)CC5)C(C)(C)C)n4)cc3)cc2)c[nH]1 [Compound W-60] | >100 fold
9 | C[C@@H]1CN(C(=O)C(=O)N[C@H](c2nc(-c3ccc(-c4ccc(-c5c[nH]c([C@@H](NC(=O)C(=O)N6C[C@@H](C)O[C@@H](C)C6)C6(C)CC6)n5)cc4)cc3)c[nH]2)C2(C)CC2)C[C@H](C)O1 [Compound W-61] | >100 fold
10 | CC1([C@H](NC(=O)C2(N3CCC(F)(F)CC3)COC2)c2nc(-c3ccc(-c4ccc(-c5c[nH]c([C@@H](NC(=O)C6(N7CCC(F)(F)CC7)COC6)C6(C)CC6)n5)cc4)cc3)c[nH]2)CC1 [Compound W-62] | >100 fold
11 | CC(C)(C)[C@H](NC(=O)C1(N2CCC(F)(F)CC2)COC1)c1nc(-c2ccc(-c3ccc(-c4c[nH]c([C@@H](NC(=O)C5(N6CCC(F)(F)CC6)COC5)C(C)(C)C)n4)cc3)cc2)c[nH]1 [Compound W-63] | >100 fold
12 | CC(C)[C@H](NC(=O)C1(N2CCC(F)(F)CC2)COC1)c1nc(-c2ccc(-c3ccc(-c4c[nH]c([C@@H](NC(=O)C5(N6CCC(F)(F)CC6)COC5)C(C)C)n4)cc3)cc2)c[nH]1 [Compound W-64] | >100 fold
13 | CC(C)[C@H](NC(=O)C(=O)N(CC(F)(F)F)C(C)C)c1nc(-c2ccc(-c3ccc(-c4c[nH]c([C@@H](NC(=O)C(=O)N(CC(F)(F)F)C(C)C)C(C)C)n4)cc3)cc2)c[nH]1 [Compound W-65] | >100 fold
14 | CC(C)N(CC(F)(F)F)C(=O)C(=O)N[C@H](c1nc(-c2ccc(-c3ccc(-c4c[nH]c([C@@H](NC(=O)C(=O)N(CC(F)(F)F)C(C)C)C(C)(C)C)n4)cc3)cc2)c[nH]1)C(C)(C)C [Compound W-66] | >100 fold
15 | CC(C)(C)OC(=O)N1[C@@H]2CC2C[C@H]1C(=O)N[C@H](c1nc(-c2ccc(-c3ccc(-c4c[nH]c([C@@H](NC(=O)[C@@H]5CC6C[C@H]6N5C(=O)OC(C)(C)C)C(C)(C)C)n4)cc3)cc2)c[nH]1)C(C)(C)C (stereo partly shown) [Compound W-67] | >100 fold
16 | C[C@H]1C[C@@H](C(=O)N[C@H](c2nc(-c3ccc(-c4ccc(-c5c[nH]c([C@@H](NC(=O)[C@@H]6C[C@H](C)CN6C(=O)OC(C)(C)C)C(C)(C)C)n5)cc4)cc3)c[nH]2)C(C)(C)C)N(C(=O)OC(C)(C)C)C1 [Compound W-68] | >100 fold
17 | C[C@H]1CC[C@@H](C(=O)N[C@H](c2nc(-c3ccc(-c4ccc(-c5c[nH]c([C@@H](NC(=O)[C@@H]6CC[C@H](C)N6C(=O)OC(C)(C)C)C(C)(C)C)n5)cc4)cc3)c[nH]2)C(C)(C)C)N1C(=O)OC(C)(C)C [Compound W-69] | >100 fold

Row | SMILES | Fold-Synergistic 1a (Q30E)
18 | C[C@H]1CC[C@@H](C(=O)N[C@H](c2nc(-c3ccc(-c4ccc(-c5c[nH]c([C@@H](NC(=O)[C@@H]6CC[C@H](C)N6C(=O)OC(C)(C)C)C6(C)CC6)n5)cc4)cc3)c[nH]2)C2(C)CC2)N1C(=O)OC(C)(C)C [Compound W-72] | >100 fold
19 | CC(C)[C@H](NC(=O)[C@@H]1C2C[C@@H]2CN1C(=O)OC(C)(C)C)c1nc(-c2ccc(-c3ccc(-c4c[nH]c([C@@H](NC(=O)[C@@H]5C6C[C@@H]6CN5C(=O)OC(C)(C)C)C(C)C)n4)cc3)cc2)c[nH]1 (stereo partly shown) [Compound W-74] | >100 fold
20 | CC(C)(C)OC(=O)N1C[C@H]2CC2[C@H]1C(=O)N[C@H](c1nc(-c2ccc(-c3ccc(-c4c[nH]c([C@@H](NC(=O)[C@@H]5C6C[C@@H]6CN5C(=O)OC(C)(C)C)C5(C)CC5)n4)cc3)cc2)c[nH]1)C1(C)CC1 (stereo partly shown) [Compound W-75] | >100 fold
21 | CC(C)(C)OC(=O)N1C[C@@H](F)C[C@H]1C(=O)N[C@H](c1nc(-c2ccc(-c3ccc(-c4c[nH]c([C@@H](NC(=O)[C@@H]5C[C@H](F)CN5C(=O)OC(C)(C)C)C(C)(C)C)n4)cc3)cc2)c[nH]1)C(C)(C)C [Compound W-83] | >100 fold
22 | CC(C)(C)OC(=O)N1CCC[C@H]1C(=O)N[C@H](c1nc(-c2ccc(-c3ccc(-c4c[nH]c([C@@H](NC(=O)[C@@H]5CCCN5C(=O)OC(C)(C)C)C(C)(C)C)n4)cc3)cc2)c[nH]1)C(C)(C)C [Compound W-86] | >100 fold
23 | CC(C)(C)OC(=O)N1CCC[C@@H]1C(=O)N[C@H](c1nc(-c2ccc(-c3ccc(-c4c[nH]c([C@@H](NC(=O)[C@H]5CCCN5C(=O)OC(C)(C)C)C(C)(C)C)n4)cc3)cc2)c[nH]1)C(C)(C)C [Compound W-87] | >100 fold
24 | CC(C)(C)OC(=O)N1CC(F)(F)C[C@H]1C(=O)N[C@H](c1nc(-c2ccc(-c3ccc(-c4c[nH]c([C@@H](NC(=O)[C@@H]5CC(F)(F)CN5C(=O)OC(C)(C)C)C(C)(C)C)n4)cc3)cc2)c[nH]1)C(C)(C)C [Compound W-88] | >100 fold
25 | C=C1C[C@@H](C(=O)N[C@H](c2nc(-c3ccc(-c4ccc(-c5c[nH]c([C@@H](NC(=O)[C@@H]6CC(=C)CN6C(=O)OC(C)(C)C)C(C)C)n5)cc4)cc3)c[nH]2)C(C)C)N(C(=O)OC(C)(C)C)C1 [Compound W-89] | >100 fold
26 | C=C1C[C@@H](C(=O)N[C@H](c2nc(-c3ccc(-c4ccc(-c5c[nH]c([C@@H](NC(=O)[C@@H]6CC(=C)CN6C(=O)OC(C)(C)C)C(C)(C)C)n5)cc4)cc3)c[nH]2)C(C)(C)C)N(C(=O)OC(C)(C)C)C1 [Compound W-91] | >100 fold
27 | CC(C)(C)OC(=O)N1CC2(CC2)C[C@H]1C(=O)N[C@H](c1nc(-c2ccc(-c3ccc(-c4c[nH]c([C@@H](NC(=O)[C@@H]5CC6(CC6)CN5C(=O)OC(C)(C)C)C(C)(C)C)n4)cc3)cc2)c[nH]1)C(C)(C)C [Compound W-94] | >100 fold
28 | CC(C)(C)OC(=O)N1C[C@H](O)C[C@H]1C(=O)N[C@H](c1nc(-c2ccc(-c3ccc(-c4c[nH]c([C@@H](NC(=O)[C@@H]5C[C@@H](O)CN5C(=O)OC(C)(C)C)C5(C)CC5)n4)cc3)cc2)c[nH]1)C1(C)CC1 [Compound W-95] | >100 fold
29 | CC(C)(C)OC(=O)N1C[C@H](O)C[C@H]1C(=O)N[C@H](c1nc(-c2ccc(-c3ccc(-c4c[nH]c([C@@H](NC(=O)[C@@H]5C[C@@H](O)CN5C(=O)OC(C)(C)C)C(C)(C)C)n4)cc3)cc2)c[nH]1)C(C)(C)C [Compound W-96] | >100 fold
30 | CC(C)[C@H](NC(=O)[C@@H]1C[C@@H](O)CN1C(=O)OC(C)(C)C)c1nc(-c2ccc(-c3ccc(-c4c[nH]c([C@@H](NC(=O)[C@@H]5C[C@@H](O)CN5C(=O)OC(C)(C)C)C(C)C)n4)cc3)cc2)c[nH]1 [Compound W-97] | >100 fold
31 | CC(C)(C)OC(=O)N1C[C@@H](O)C[C@H]1C(=O)N[C@H](c1nc(-c2ccc(-c3ccc(-c4c[nH]c([C@@H](NC(=O)[C@@H]5C[C@H](O)CN5C(=O)OC(C)(C)C)C(C)(C)C)n4)cc3)cc2)c[nH]1)C(C)(C)C [Compound W-98] | >100 fold
32 | CC(C)(C)OC(=O)N1C[C@@H](O)C[C@H]1C(=O)N[C@H](c1nc(-c2ccc(-c3ccc(-c4c[nH]c([C@@H](NC(=O)[C@@H]5C[C@H](O)CN5C(=O)OC(C)(C)C)C5(C)CC5)n4)cc3)cc2)c[nH]1)C1(C)CC1 [Compound W-99] | >100 fold
33 | CC(C)[C@H](NC(=O)[C@@H]1C[C@H](O)CN1C(=O)OC(C)(C)C)c1nc(-c2ccc(-c3ccc(-c4c[nH]c([C@@H](NC(=O)[C@@H]5C[C@H](O)CN5C(=O)OC(C)(C)C)C(C)C)n4)cc3)cc2)c[nH]1 [Compound W-100] | >100 fold
34 | CC(C)(C)[C@H](NC(=O)[C@@H]1C[C@@H](F)CN1C(=O)C1CC1)c1nc(-c2ccc(-c3ccc(-c4c[nH]c([C@@H](NC(=O)[C@@H]5C[C@@H](F)CN5C(=O)C5CC5)C(C)(C)C)n4)cc3)cc2)c[nH]1 [Compound W-104] | >100 fold
